From patent US8486991B2, “Enantiomerically pure phosphoindoles as HIV inhibitors” (Idenix Pharmaceuticals, Inc., priority 2006, dated 2013) come the findings set out here.

Data set [1] concerns the target site-directed mutant HIV-1 RT enzymes. In words: HIV-1 RT enzyme assay, whole panel (ranges). Type of data set: biochemical. Particulars: for IC50: Table 3, range over W.T. and 7 mutant enzymes; for Mean Activity Range (fold-resistance): Table 4, range of fold changes over the panel. The source says:
In Vitro Antiviral Activity Against Additional Mutant HIV RT Enzymes
The studies are summarized in the text that follows.

Data set [2] deals with human DNA polymerase beta (Homo sapiens, UniProt P06746). Kind of data set: Human cellular DNA polymerase beta assay. Type of data set: biochemical. The text has this: (§1) HIV RT, like other viral polymerase, shares limited structural homology with the cellular DNA polymerases responsible for normal nuclear and mitochondrial DNA synthesis and repair. This raises the formal possibility that inhibitors of HIV RT might inhibit cellular polymerases, resulting in cellular toxicity. In particular, inhibition of polymerase gamma has the potential to result in mitochondrial toxicity. The ability of Compound I and Compound III to inhibit cellular DNA polymerases was assessed using standard in vitro assays (Table 5).

The target of data set [3] is T1, human DNA polymerase gamma (Homo sapiens, UniProt P54098).
T1 sequence (P54098 1-1239): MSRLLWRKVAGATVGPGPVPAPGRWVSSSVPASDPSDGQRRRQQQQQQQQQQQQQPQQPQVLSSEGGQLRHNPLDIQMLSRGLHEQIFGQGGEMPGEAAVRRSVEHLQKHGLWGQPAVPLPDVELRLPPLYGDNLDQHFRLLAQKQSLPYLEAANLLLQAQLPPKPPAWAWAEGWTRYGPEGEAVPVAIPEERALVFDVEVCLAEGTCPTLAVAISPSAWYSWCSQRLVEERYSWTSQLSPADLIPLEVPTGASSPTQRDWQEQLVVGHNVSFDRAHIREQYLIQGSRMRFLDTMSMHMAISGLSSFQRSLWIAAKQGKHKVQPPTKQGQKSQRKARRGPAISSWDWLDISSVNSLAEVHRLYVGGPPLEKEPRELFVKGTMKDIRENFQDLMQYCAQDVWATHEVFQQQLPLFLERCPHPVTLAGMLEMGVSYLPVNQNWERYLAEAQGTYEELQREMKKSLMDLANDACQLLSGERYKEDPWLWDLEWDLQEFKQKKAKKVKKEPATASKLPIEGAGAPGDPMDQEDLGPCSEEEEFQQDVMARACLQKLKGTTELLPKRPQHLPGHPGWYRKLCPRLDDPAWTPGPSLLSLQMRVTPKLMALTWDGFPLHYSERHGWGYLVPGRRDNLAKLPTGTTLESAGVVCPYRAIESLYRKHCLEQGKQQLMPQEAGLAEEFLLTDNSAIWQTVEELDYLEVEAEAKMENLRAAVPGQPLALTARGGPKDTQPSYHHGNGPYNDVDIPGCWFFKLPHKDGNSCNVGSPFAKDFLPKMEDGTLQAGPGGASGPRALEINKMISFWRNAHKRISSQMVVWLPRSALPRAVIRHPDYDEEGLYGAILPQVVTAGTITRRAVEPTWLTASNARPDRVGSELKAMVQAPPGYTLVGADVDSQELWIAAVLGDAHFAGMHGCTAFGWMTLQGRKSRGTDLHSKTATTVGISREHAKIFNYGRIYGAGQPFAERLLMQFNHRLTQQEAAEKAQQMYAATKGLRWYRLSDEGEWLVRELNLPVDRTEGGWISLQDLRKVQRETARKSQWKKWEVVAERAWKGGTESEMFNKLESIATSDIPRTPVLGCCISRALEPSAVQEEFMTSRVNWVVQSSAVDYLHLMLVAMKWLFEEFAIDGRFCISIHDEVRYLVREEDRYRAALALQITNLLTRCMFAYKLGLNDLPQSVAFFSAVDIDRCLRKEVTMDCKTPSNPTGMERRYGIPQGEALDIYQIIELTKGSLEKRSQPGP
In words: Human cellular DNA polymerase gamma assay. It is filed as biochemical.
From the text: as §1

Another data set deals with HIV-1 W.T. (BH10) virus. In words: PBMC cell assay, W.T. (BH10). Type of data set: cell-based.
In data set [4] the test system is HIV-1 K103N clinical isolates 4937 and 5002. Kind of data set: microbe, parasite or virus in culture. Type of data set: cell-based. As to conditions: Human immunodeficiency virus 1, PBMC, read-out: Average EC50 Values ± Standard Deviation, K103N.
For a further data set, the system named is HIV-1 IIIB w.t. virus. In words: microbe, parasite or virus in culture. As to conditions: for Fold Change, W.T.: Table 16. Type of data set: cell-based. As for the experimental part: The test articles were next profiled against a panel of HIV-1 IIIB laboratory cultivated mutants as summarized in the text below. Antiviral efficacy was determined via a CPE assay with an MTS read-out for cell viability.

The subject of data set [5] is HIV-1 IIIB in MOLT-4 cells. Kind of data set: Drug susceptibility assay, IIIB in MOLT-4 cells. Particulars: Human immunodeficiency virus 1, IIIB. Type of data set: cell-based. The source says: The virus and host-cell dependency of Compound I, Compound III and control drugs was further examined in drug susceptibility assays performed across 3 different subtype B wild-type HIV-1 strains and 5 different cell lines.

The next data set can be described thus: in vitro. The procedure: Cell viability was determined via MTT staining.
A short description of data set [6]: Cellular cytotoxicity, 4 days, MTS, MOLT-4. As to conditions: human, Table 21, read-out: Average CC50 Values ± Standard Deviation, MOLT-4. Type of data set: cell-based.
Data set [7] in a line: Cellular cytotoxicity, 4 days, MTS, IM9. As to conditions: human, Table 21, read-out: Average CC50 Values ± Standard Deviation, IM9. It is filed as cell-based.
The nature of data set [8]: Cellular cytotoxicity, 4 days, MTS, MT-2. It is filed as cell-based. As to conditions: human, Table 21, read-out: Average CC50 Values ± Standard Deviation, MT-2.
Data set [9] is described as follows: Cellular cytotoxicity, 4 days, MTS, MT-4. Particulars: human, Average CC50 Values ± Standard Deviation, MT-4, Table 21, 4 days, MTS. As for the experimental part: Following drug exposure for 4 days, cell viability was measured by MTS staining and CC50 values were determined. Drug concentrations ranged from 0.005 μM to 100 μM.
The preceding data, allows us to calculate selectivity index (SI) values, based on the ratio of CC50 to EC50 in MT-4 cells (the standard assay used in this work).

A short description of data set [10]: Longer term cytotoxicity, 9 days, MTS, HeLa. As to conditions: human.
The nature of data set [11]: Longer term cytotoxicity, 12 days, MTS, HepG2. As to conditions: human.
[12] abbreviates: Human immunodeficiency virus 1, PBMC, read-out: Average EC50 Values ± Standard Deviation, W.T. (BH10).
The mark [13] stands for this setting: Human immunodeficiency virus 1, PBMC, read-out: mean EC50, BH-10 strain in human PBMC.
Setting [14] is: Human immunodeficiency virus 1, MT4, Table 15, IIIB, CPE, read-out: Average EC50 Values ± Standard Deviation, W.T.
Setting [15] is: Table 5, read-out: Average IC50 Values ± Standard Deviation, DNA Pol Beta.
The mark [16] stands for this setting: Table 5, preliminary data from a single experiment, read-out: Average IC50 Values, DNA Pol Gamma.
Setting [17] is: MOLT-4, Table 17, read-out: Average EC50 Values ± Standard Deviation, host MOLT-4, virus IIIB.
Setting [18] is: MOLT-4 cells (T lymphoblastic leukemia cell line).
Where [19] appears, read: IM9 cells (B lymphoblastic cell line).

Each structure is given as a SMILES string. Several values for one entry are separate records, joined by “and”; a condition that tells them apart may be missing. Equal entries are not always repeated. Where two headings read alike, the source gives them in different places. A value given as a limit tells only on which side of the number the result lay.

As a reminder, the IC50 is the concentration that gives 50% inhibition. In general, EC50 refers to the concentration that produces a half-maximal response. Regarding `CO[P@](=O)(c1cc(C)cc(/C=C/C#N)c1)c1c(C(N)=O)[nH]c2ccc(Cl)c(F)c12` [Compound I, (2-Carbamoyl-5-chloro-4-fluoro-1H-indol-3-yl)-[3-((E)-2-cyano-vinyl)-5-methyl-phenyl]-(R)-phosphinic acid methyl ester], the IC50 was 0.16 to 4.67 µM in [1]; at least 422 µM in data set [2] (Average IC50 Values ± Standard Deviation, DNA Pol Beta, Table 5); 422 ± 150 µM in data set [2] (Mean IC50 Values ± Standard Deviation, DNA Pol Beta, Table 6, N=4); 118 µM in [3] (Average IC50 Values, DNA Pol Gamma, Table 5, preliminary data from a single experiment); 118 µM in data set [3] (Mean IC50 Values ± Standard Deviation, DNA Pol Gamma, Table 6, N=4). Besides, the “Mean Activity Range (fold-resistance)” value in data set [1] was in the range of 0.5 to 15.5 µM. The “Average IC50 Values ± Standard Deviation, DNA Pol Beta” value in [2] (Table 5) is “did not reach an IC50”. Also, the EC50 turned out to be 0.0004 ± 0.0001 µM with HIV-1 W.T. (BH10) virus (setting [12]); 0.0004 µM with HIV-1 W.T. (BH10) virus (setting [13]); 0.0007 ± 0.0003 µM in data set [4]; 0.001 ± 0.0004 µM with HIV-1 IIIB w.t. virus (setting [14]); 0.0007 ± 0.0001 µM in data set [5] (MOLT-4, read-out: Average EC50 Values ± Standard Deviation, host MOLT-4, virus IIIB). The “Fold Change, W.T.” value in the data set on HIV-1 IIIB w.t. virus (IIIB) was found to be 1 fold. Moreover, the CC50 at 3 days in “in vitro” turned out to be 52.6 µM. Moreover, the CC50 at 4 days came to 16.6 ± 0.4 µM in data set [6], 32.9 ± 2.6 µM in data set [7], 23.5 ± 1 µM in data set [8] and 27 µM in [9]. Moreover, in data set [10], the CC50 at 9 days stood at 27.9 ± 1.14 µM. Further, in data set [11], the CC50 at 12 days came out at 25.7 ± 3.26 µM.
For the compound `O=C1Nc2ccc(Cl)cc2C(C#CC2CC2)(C(F)(F)F)O1` (stereo not shown) [EFV, 6-chloro-4-cyclopropylethynyl-4-trifluoromethyl-1,4-dihydro-2H-3,1-benzoxazin-2-one, reference compound], the IC50 was at least 0.02 µM in data set [1]; 314 ± 177 µM in data set [2] (setting [15]); 314 ± 177 µM in data set [2] (Table 6, N=4, read-out: Mean IC50 Values ± Standard Deviation, DNA Pol Beta); 116 µM in data set [3] (setting [16]); at least 100 µM in data set [3] (Table 6, N=4, read-out: Mean IC50 Values ± Standard Deviation, DNA Pol Gamma). Further, in data set [2] (Table 5), the “Average IC50 Values ± Standard Deviation, DNA Pol Beta” value is “did not reach an IC50”. Also, the EC50 amounted to 0.0009 ± 0.0003 µM in the data set on HIV-1 W.T. (BH10) virus (Human immunodeficiency virus 1, Table 14, PBMC, read-out: Average EC50 Values ± Standard Deviation, W.T. (BH10)); 0.0414 ± 0.0369 µM in data set [4]; 0.0015 ± 0.0006 µM in the data set with HIV-1 IIIB w.t. virus (Human immunodeficiency virus 1, IIIB, MT4, read-out: Average EC50 Values ± Standard Deviation, W.T.); 0.0009 ± 0.0002 µM in [5] (setting [17]). The same compound returned a CC50 at 3 days in the data set “in vitro” of 70.9 ± 7.6 µM. Besides, the CC50 at 4 days in data set [6] (setting [18]) was determined as 41.7 ± 3.4 µM; in data set [7] (setting [19]), 51 ± 1.3 µM; in data set [8] (MT-2 cells (leukemia T cells)) it was 24.6 ± 4.5 µM; in data set [9] (MT-4 cells (leukemia T cells)), 44.1 ± 18.2 µM. Further, the CC50 at 9 days in data set [10] (HeLa epithelial cells) is 48.6 ± 2.5 µM. The same compound gave a CC50 at 12 days in data set [11] (HepG2 liver cells) of 80.6 ± 12.1 µM.
On to `CO[P@](=O)(c1cc(C)cc(/C=C/C#N)c1)c1c(C(N)=O)[nH]c2ccc(Cl)cc12` [Compound III, (2-Carbamoyl-5-chloro-1H-indol-3-yl)-[3-((E)-2-cyano-vinyl)-5-methyl-phenyl]-(R)-phosphinic acid methyl ester], for which the IC50 is 0.13 to 2.99 µM in [1]; at least 479 µM in data set [2] (setting [15]); ≥ 60 µM and 60.1 µM in data set [3] (setting [16]). In addition, in [1], the “Mean Activity Range (fold-resistance)” value lay within 0.6 to 13.7 µM. Moreover, in data set [2] (Table 5), the “Average IC50 Values ± Standard Deviation, DNA Pol Beta” value is “did not reach an IC50”. In addition, the EC50 in the data set on HIV-1 W.T. (BH10) virus (setting [12]) was determined as 0.0004 ± 0.0001 µM; in the data set with HIV-1 W.T. (BH10) virus (setting [13]), 0.0004 µM; in data set [4], 0.0009 ± 0.0004 µM; with HIV-1 IIIB w.t. virus (setting [14]), 0.0005 ± 0.0001 µM; in data set [5] (setting [17]), 0.0006 ± 0.0001 µM. In the data set with HIV-1 IIIB w.t. virus (IIIB), the “Fold Change, W.T.” value came out at 1 fold. Moreover, the CC50 at 3 days in the data set “in vitro” (human, stimulated primary blood mononuclear cells (PBMC)) stood at 66.9 µM. Also, the CC50 at 4 days in [6] (setting [18]) was 14.8 ± 1 µM; in data set [7] (setting [19]) it was 50 ± 17.4 µM; in [8] (MT-2 cells (leukemia T cells)), 25.9 ± 2.1 µM; in data set [9] (MT-4 cells (leukemia T cells)) it was 18.6 µM. In data set [10] (HeLa epithelial cells), this compound showed a CC50 at 9 days of 29.9 ± 2.09 µM. The compound further registered a CC50 at 12 days in [11] (HepG2 liver cells) of 23.5 ± 1.51 µM.
